Test results from US20250011311A1, “AMIDO HETEROAROMATIC COMPOUNDS” (AstraZeneca AB, priority 2022, published 2025).

How the values were obtained:
human hepatocytes = assay: Assay A: Metabolic Stability in Human Hepatocytes; assay type: in vitro ADME; details: cryopreserved human hepatocytes, 10^6 viable cells/mL, 1 μM compound, 37° C.
Procedure: Assay A: Metabolic Stability in Human Hepatocytes
Hepatocyte metabolic stability was determined in accordance with the method described by Jacobson et al., An optimized automated assay for determination of metabolic stability using hepatocytes: assay validation, variance component analysis, and in vivo relevance. Assay Drug Dev Technol 2007, 5 (3), 403-415. DOI: 10.1089/adt.2007.059, which is incorporated herein by reference. Cryopreserved hepatocytes at a concentration of 10^6 viable cells/mL were used. After thawing, hepatocytes were incubated for 10 min to warm to 37° C. and test compounds, dissolved in acetonitrile, were added to give a final concentration of 1 μM. At 0.5, 5, 15, 30, 45, 60, 80, 100 and 120 min, the incubation system was mixed and 20 μL aliquots were transferred at each time point to wells in a separate plate filled with 80 μL MeCN to stop the reaction. The quenching plate was then vortexed followed by centrifugation, and supernatants were analyzed by LC-MS/MS. Peak areas were determined from extracted ion chromatograms, and the in vitro intrinsic clearance (in vitro CLint, in μL/min/10^6 cells) of parent compound was calculated from the slope in the regression analysis of the natural logarithm of parent concentration vs time curve.

[1] = target: recombinant 17bHSD13 (N2-K300) (Homo sapiens (Human), UniProt Q7Z5P4); assay: In Vitro 17bHSD13 Enzyme Assay; assay type: biochemical; details: 80 nM 17bHSD13, 0.5 mM NAD, 20 μM Estradiol, 2.5 h; estradiol to estrone by LC-MS/MS
Chain of recombinant 17bHSD13 (N2-K300) (Q7Z5P4 2-300): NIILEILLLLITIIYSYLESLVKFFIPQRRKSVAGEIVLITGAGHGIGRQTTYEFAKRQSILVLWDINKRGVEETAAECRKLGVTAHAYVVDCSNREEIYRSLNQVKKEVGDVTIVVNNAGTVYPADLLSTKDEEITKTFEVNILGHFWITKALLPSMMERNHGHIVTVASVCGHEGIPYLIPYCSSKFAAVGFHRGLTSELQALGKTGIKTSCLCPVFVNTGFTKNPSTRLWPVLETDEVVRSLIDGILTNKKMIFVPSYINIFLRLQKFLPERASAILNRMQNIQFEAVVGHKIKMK
In short: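 Human 17bHSD13 (N2-K300, 80 nM) with 0.5 mM NAD, 20 μM estradiol and varied compound in 50 mM Tris-Cl pH 7.4, 5 mM EDTA, 0.01% DDM. Estrone/(estrone+estradiol) ratio read by LC-MS/MS (APCI, positive MRM). Inhibition normalised to DMSO and a known-inhibitor control; IC50 from curve fit.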

[2] = target: over expressed HSD17β13 in HEK293S cells (Homo sapiens (Human), UniProt Q7Z5P4); assay: In Vitro 17bHSD13 Cell Assay; assay type: cell-based; details: HEK293S cells over expressing HSD17β13; estradiol to estrone conversion, 18 h, LC-MS/MS; read-out: 17bHSD1713 Cell assay IC50
Chain of over expressed HSD17β13 in HEK293S cells (Q7Z5P4 20-300): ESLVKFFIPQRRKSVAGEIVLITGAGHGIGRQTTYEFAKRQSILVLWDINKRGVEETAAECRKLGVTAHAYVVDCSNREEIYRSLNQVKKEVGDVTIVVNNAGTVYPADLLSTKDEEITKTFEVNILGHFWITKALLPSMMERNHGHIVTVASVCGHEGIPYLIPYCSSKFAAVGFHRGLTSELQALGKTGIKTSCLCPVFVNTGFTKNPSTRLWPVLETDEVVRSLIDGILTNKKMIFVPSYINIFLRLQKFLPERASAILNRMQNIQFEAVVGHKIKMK
In short: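 HEK293S cells overexpressing HSD17β13 convert estradiol to estrone; product read by LC-MS/MS (APCI, positive MRM) as AUC ratio estrone/(estrone+estradiol). Effect normalised between DMSO and maximal inhibition by a known inhibitor control; IC50 from curve fit.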

CYP2C9 = CYP2C9 (Homo sapiens (Human), UniProt P11712); assay: Assay B: Cytochrome P450 Inhibition 2C9
Chain of CYP2C9 (P11712 whole entry): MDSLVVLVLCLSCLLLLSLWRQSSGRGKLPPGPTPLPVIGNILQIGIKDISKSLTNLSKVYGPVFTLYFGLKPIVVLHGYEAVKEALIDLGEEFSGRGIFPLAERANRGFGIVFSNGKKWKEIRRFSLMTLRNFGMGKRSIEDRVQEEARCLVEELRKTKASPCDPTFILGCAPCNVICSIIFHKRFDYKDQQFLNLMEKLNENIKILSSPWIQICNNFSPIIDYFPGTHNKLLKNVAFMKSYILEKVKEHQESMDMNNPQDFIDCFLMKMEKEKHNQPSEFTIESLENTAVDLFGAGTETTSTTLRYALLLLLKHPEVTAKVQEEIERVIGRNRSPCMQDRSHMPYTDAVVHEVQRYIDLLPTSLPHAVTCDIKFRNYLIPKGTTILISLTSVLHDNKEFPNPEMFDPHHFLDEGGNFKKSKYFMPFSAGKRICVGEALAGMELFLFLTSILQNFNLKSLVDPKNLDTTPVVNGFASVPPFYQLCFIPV

[3] = target: over expressed HSD17β9 in HEK293S cells (Homo sapiens (Human), UniProt Q92781); assay: In Vitro 17bHSD9 Cell Assay; assay type: cell-based; details: HEK293S cells over expressing HSD17β9; retinol to retinal conversion, 18 h, LC-MS/MS; read-out: 17bHSD9 Cell assay IC50
Chain of over expressed HSD17β9 in HEK293S cells (Q92781 whole entry): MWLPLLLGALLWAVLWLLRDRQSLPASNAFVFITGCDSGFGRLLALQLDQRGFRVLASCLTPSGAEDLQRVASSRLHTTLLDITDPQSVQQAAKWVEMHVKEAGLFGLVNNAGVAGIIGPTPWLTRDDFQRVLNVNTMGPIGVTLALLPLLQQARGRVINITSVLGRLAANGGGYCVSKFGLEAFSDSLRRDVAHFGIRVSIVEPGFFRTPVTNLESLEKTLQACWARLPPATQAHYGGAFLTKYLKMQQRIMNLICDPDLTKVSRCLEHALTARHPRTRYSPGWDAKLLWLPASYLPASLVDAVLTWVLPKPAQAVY
In short: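 HEK293S cells overexpressing HSD17β9 were plated at 10K cells/well in DMEM + 10% FBS and cultured 18 h. Retinol-to-retinal conversion in media was quantified by LC-MS/MS (MRM) as retinal/(retinal + retinol). IC50 was fitted after normalisation to DMSO and full inhibition by a reference inhibitor.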

[4] = target: recombinant 17bHSD4 (M1-N311) (Homo sapiens (Human), UniProt P51659); assay: In Vitro 17bHSD4 Enzyme Assay; assay type: biochemical; details: 40 nM 17bHSD4, 0.125 mM NAD, 15 μM Estradiol, 1.5 h; NADH fluorescence; read-out: 17HSD17b4 Enzyme assay IC50
Chain of recombinant 17bHSD4 (M1-N311) (P51659 1-311): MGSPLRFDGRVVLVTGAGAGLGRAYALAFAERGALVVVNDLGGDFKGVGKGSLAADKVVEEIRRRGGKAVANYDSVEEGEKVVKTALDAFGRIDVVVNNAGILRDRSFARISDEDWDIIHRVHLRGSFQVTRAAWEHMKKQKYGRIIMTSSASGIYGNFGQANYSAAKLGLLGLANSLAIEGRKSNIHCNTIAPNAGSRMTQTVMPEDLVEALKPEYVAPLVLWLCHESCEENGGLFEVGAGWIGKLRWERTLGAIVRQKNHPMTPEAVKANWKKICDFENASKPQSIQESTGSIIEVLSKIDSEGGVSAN
Procedure: In Vitro 17bHSD4 Enzyme Assay
10 concentration of compounds (0.2 μl) in DMSO was added to GREINER FLUOTRAC 200 384 well plate (781076) using ECHO dispensing (BECKMAN COULTER). 80 nl of 10 mM Estradiol (SIGMA, E8875) was added using Echo dispensing. The enzyme reaction was initiated by addition, using MULTIDROP COMBI dispensing (THERMO FISHER), of 40 μl of a mix containing recombinant 17bHSD4 (M1-N311) and NAD. Final assay conditions were 40 nM of 17bHSD4, 0.125 mM of NAD, 15 μM Estradiol and various concentrations of compound in buffer (5 mM EDTA (TEKNOVA E0306), 0.01% DDM (AFFYMETRIX D310) in 50 mM Tris-Cl, pH 7.4). After each addition plates were centrifuged for 1 min at 150×g (EPPENDORF, 5810R, A-4-81). NADH formation was measured by fluorescence intensity (FI) (Ex360/Em460) at time zero (to) and at 1.5 h (t1) in a PHERASTAR FSX (BMG LABTECH). FI for each sample was calculated as FI at t1 minus FI at t0.
[…] […] was used for curve fitting and calculation of IC50 values.
Compound effect was calculated with the formula below;
where X represents the effect in the presence of test compound, min is DMSO and max is the maximum inhibition of enzyme using a known inhibitor as control.

Compound | IC50 [1] | IC50 [2] | IC50 (CYP2C9) | IC50 [3] | IC50 [4] | Assay A: Human Heps Met Clint GMean CLint (μl/min/1E6) (human hepatocytes)
O=C(Nc1ccnn1C1CCCCC1)c1cnc(-c2ccc(F)c(O)c2)o1 [Example 12, N-(1-Cyclohexyl-1H-pyrazol-5-yl)-2-(4-fluoro-3-hydroxyphenyl)oxazole-5-carboxamide] | 4340 nM | > 50000 nM | 21200 nM |  |  | 
N#Cc1c(C(=O)N2CC(F)(C3CC3)C2)noc1-c1cc(F)c(F)c(O)c1F [Example 27, 3-(3-Cyclopropyl-3-fluoroazetidine-1-carbonyl)-5-(2,4,5-trifluoro-3-hydroxyphenyl)isoxazole-4-carbonitrile] | 382 nM | 4090 nM | 3100 nM |  |  | 14.0 μl/min/1E6
CN(C(=O)c1cc(-c2ccc(F)c(O)c2)no1)c1ccnn1C1CCCCC1 [Example 5, N-(1-Cyclohexyl-1H-pyrazol-5-yl)-3-(4-fluoro-3-hydroxyphenyl)-N-methylisoxazole-5-carboxamide] | 93 nM | 2610 nM | 3000 nM | > 50000 nM |  | 
CN(C(=O)c1cc(-c2ccc(F)c(O)c2)on1)c1ccnn1C1CCCCC1 [Example 7, N-(1-Cyclohexyl-1H-pyrazol-5-yl)-5-(4-fluoro-3-hydroxyphenyl)-N-methylisoxazole-3-carboxamide] | 83 nM | 5050 nM | 8400 nM |  | > 50000 nM | 
N#Cc1c(C(=O)N2CCC(O)(C(F)(F)F)CC2)noc1-c1cc(F)c(F)c(O)c1F [Example 26, 3-(4-Hydroxy-4-(trifluoromethyl)piperidine-1-carbonyl)-5-(2,4,5-trifluoro-3-hydroxyphenyl)isoxazole-4-carbonitrile] | 278 nM | 2970 nM | 4400 nM |  |  | 9.2 μl/min/1E6

Second part, led by results:

IC50 [1] | IC50 [2] | IC50 (CYP2C9) | IC50 [3] | IC50 [4] | Compound | Assay A: Human Heps Met Clint GMean CLint (μl/min/1E6) (human hepatocytes)
127 nM | 800 nM | 3000 nM |  |  | COc1ccc(C(C)N(C)C(=O)c2noc(-c3cc(F)c(F)c(O)c3F)n2)cc1 (stereo not drawn) [Example 78, N-(1-(4-Methoxyphenyl)ethyl)-N-methyl-5-(2,4,5-trifluoro-3-hydroxyphenyl)-1,2,4-oxadiazole-3-carboxamide] | 28.2 μl/min/1E6
75 nM | 170 nM | 300 nM |  |  | O=C(c1noc(-c2cc(F)c(F)c(O)c2F)n1)N1CC2CC2(c2ccccc2)C1 (stereo not drawn) [Example 77, (1-Phenyl-3-azabicyclo[3.1.0]hexan-3-yl)(5-(2,4,5-trifluoro-3-hydroxyphenyl)-1,2,4-oxadiazol-3-yl)methanone] | 13.4 μl/min/1E6
26 nM | 530 nM | 800 nM | 24900 nM | 6500 nM | O=C(c1noc(-c2cc(F)c(F)c(O)c2F)n1)N1CC[C@@H](c2ccc(Cl)cc2)C1 [Example 103, (S)-(3-(4-Chlorophenyl)pyrrolidin-1-yl)(5-(2,4,5-trifluoro-3-hydroxyphenyl)-1,2,4-oxadiazol-3-yl)methanone] | 
106 nM | 1390 nM | 2000 nM |  |  | O=C(c1noc(-c2cc(F)c(F)c(O)c2F)n1)N1CCC(Oc2ccc(F)cc2)C1 (stereo not drawn) [Example 79, (3-(4-Fluorophenoxy)pyrrolidin-1-yl)(5-(2,4,5-trifluoro-3-hydroxyphenyl)-1,2,4-oxadiazol-3-yl)methanone] | 10.1 μl/min/1E6
47 nM | 170 nM | 1300 nM | 17300 nM | 18000 nM | O=C(c1noc(-c2cc(F)c(F)c(O)c2F)n1)N1CCC(c2ccccc2)C1 (stereo not drawn) [Example 96, (3-Phenylpyrrolidin-1-yl)(5-(2,4,5-trifluoro-3-hydroxyphenyl)-1,2,4-oxadiazol-3-yl)methanone] | 
1670 nM | 540 nM |  | > 50000 nM | > 50000 nM | O=C(c1noc(-c2cc(F)c(F)c(O)c2F)n1)N1CCO[C@@H](CF)C1 [Example 49, (R)-(2-(Fluoromethyl)morpholino)(5-(2,4,5-trifluoro-3-hydroxyphenyl)-1,2,4-oxadiazol-3-yl)methanone] | 
